Laboratory results as given in US20060234934A1, “Composition and Method for Selective Cytostasis” (priority 2005, published 2006).

Columns and labels:
[1] = test system: ALL line MOLT-4 (CRL1582); assay: 3[H]thymidine uptake in leukemic cell line MOLT-4; assay type: cell-based, human; conditions: 50 nG/mL
Description: For example, the ALL line MOLT-4 (now denoted CRL1582 by the ATCC) was used for testing a representative cytostatic peptide for its effect on leukemic cells. The testing method described by Kikuwa, et al (1986), which is hereby incorporated herein by reference. In brief, the cells were maintained as a suspension in RPMI 1640 (Gibco) and 10% FCS, 100 u. penicillin G/mL and 100 micrograms streptomycin/mL with 2 mM L-glutamine.
Representative non-toxic cytostatic peptides were tested in still other cancer cell lines.

[2] = test system: Malignant melanoma A375 cells; assay: 3[H]-thymidine incorporation in A375 cell cultures; assay type: cell-based
Description: Each fraction was reconstituted in 110 μl of Dulbecco's modified Eagle's medium (DMEM) with fetal calf serum (FCS) 5 vol. %, 100 I.U. penicillin, 100 μg streptomycin and 2 nmole glutamine.
Malignant melanoma A375 cells (obtained from the American Type Culture Collection, Rockville, Md.) were counted in a counter (obtained from Coulter Diagnostics, Hialeah, Fla.), and about 4,000 cells were seeded into each well of a 96 well microtiter plate (obtained from Fisher Scientific, Springfield, N.J.) with 200 I.U. penicillin, 200 µg streptomycin and DMEM containing FCS 5 vol. %, 2 nmole glutamine, and […] HEPES (hydroxyethylpiperazine-ethanesulfonic acid buffer) as needed to give a final well volume of […]. […]
The cell cultures were terminated and harvested with a cell harvester (obtained from Flow Laboratories, McLean, Va., under the designation Titertek®), removing the contents of each microtiter plate well onto glass fiber filter paper. […] The strips were placed in scintillation vials and counted in 2 ml scintillation solution (obtained from Fisher Scientific, Springfield, N.J., under the designation Scintiverse®) using a scintillation counter (Model No. LS 100 C. obtained from Beckman Instruments, Somerset, N.J.) to determine the uptake of ^3[H]-thymidine into newly synthesized DNA.

serine-glutamine-cysteine-glutamic acid-glutamine-glutamic acid-glycine-glycine-phenalalanine-cysteine-arginine-phenylalanine-leucine-leucine-cysteine-proline-serine-arginine-threonine-serine-aspartic acid-isoleucine-glysine-lysine-leucine-glycine-cysteine-glutamic acid-proline-leucine-tryptophan-lysine-cysteine-cysteine-lysine-arginine-tryptophan-glycine-glycine [peak Q]
less 3[H]thymidine uptake than controls [1]: 90-95% | visual appearance of cells [1]: altered “rounded” visual appearance | less 3[H]-thymidine uptake than controls ([2]; HPLC fraction): about 50% | amount sufficient to arrest the proliferations of at least about 100,000 melanoma cells ([2]; melanoma cells): about 50 ng
